The values below come from patent US9346846B1, “Anti-cancer compounds and methods for treating cancer” (YALE UNIVERSITY, priority 2013, dated 2016).

Holding throughout (type): cell-based
In one assay the test system is pCHK2. Kind of assay: Western blotting of treated MCF7 cells, pCHK2. Particulars: 24 hour treatment. How it is done:
(§1) MCF-7 are seeded into 6-well dishes and treated with various doses of (−)-lomaiviticin A (LA), in the absence and presence of ionizing radiation (IR) at a dose rate of 2.4295 Gy/min (2 Gy, X-Ray) for 24 hour. After treatment, the cells were harvested for lysis in AZ lysis buffer ([…] Tris, 250 mM NaCl, 1% Igepal, 0.1% SDS, 5 mM EDTA, 10 mM Na4P2O7, 10 mM NaF) containing protease and phosphatase inhibitors. Western blotting was performed (FIG. 26).
(§2) Primary antibodies used were: mouse monoclonal anti-Ser1981-pATM (10H11.E12, Millipore, Temecula, Calif.), mouse monoclonal anti-vinculin (SPM227, Abcam, Cambridge, Mass.), rabbit polyclonal anti-Ser428-pATR (Cell Signaling, Danvers, Mass.), rabbit polyclonal anti-Thr68-pCHK2 (Cell Signaling), rabbit monoclonal anti-CHK2 (D9C6, Cell Signaling), rabbit monoclonal anti-Ser345-pCHK1 (Cell Signaling), and rabbit monoclonal anti-CHK1 (E250, Millipore).
(§3) Proteins were visualized with horseradish peroxidase-conjugated anti-mouse and anti-rabbit immunoglobulin G (Thermo Scientific, Rockford, Ill.) and the SuperSignal West Pico Chemiluminescent Substrate detection system (Thermo Scientific).

The subject of a further assay is pCHK1. Kind of assay: Western blotting of treated MCF7 cells, pCHK1. Particulars: 24 hour treatment, listed as LA. How it is done:
as §1, §2, §3

Another assay relates to pATM. Kind of assay: Western blotting of treated MCF7 cells, pATM. The settings on record: 24 hour treatment. Here is the method: as §1, §2, §3
Assay [1] concerns DDR-deficient cancer cells (BRCA2, pten, KU80 and DNApk). Kind of assay: Chronogenic survival assay in DNA damage response deficient cancer cell lines. Here is the method: (§4) A number of cancer cells lines were tested for effectness of (−)-lomaiviticin A or MK7-206. These cell lines are DNA damage response deficient cells (DDR-deficient cancer cells, indicated in FIGS. 16-24) or hypoxic cells (indicated in FIG. 25). The indicated cells were seeded at 500 cells per well in 6-23ll dishes and treated with various concentrations of (−)-lomaiviticin A at the indicated concentrations indicated in FIGS. 16-25 for a period of 24 hours, after which time the media containing the inhibitor was removed and replaced with fresh media. Colonies were fixed with 0.9% saline solution and stained with crystal violet 8-14 days later. Colonies consistent of greater than 50 cells were counted. Experiments utilizing MK7-206 for the cell lines which are presented in attached FIG. 28 (Table 2) and FIG. 30 (Table 4) were also conducted (at higher concentrations than for (−)lomaiviticin A).

In another assay the test system is hypoxic A549 cells. Kind of assay: Chronogenic survival assay in hypoxic versus normoxic A549 cells. Particulars: hypoxia vs normoxia, 24 hours treatment. How it is done:
as §4

A further assay has as its system pATR. Kind of assay: Western blotting of treated MCF7 cells, pATR. Particulars: 24 hour treatment, listed as LA. How it is done: as §1, §2, §3
The subject of another assay is hypoxic MCF7 cells. Kind of assay: Chronogenic survival assay in hypoxic versus normoxic MCF7 cells. The settings on record: hypoxia vs normoxia, 24 hours treatment. Here is the method:
as §4

Entries after “also recorded” stand apart in the source; their conditions may differ.

For the substance (−)-lomaiviticin A, the “change in pCHK2 (western blot)” value in the assay on pCHK2 is given as “increase”. Besides, the “change in pCHK1 (western blot)” value in the assay with pCHK1 is “no increase”. Besides, the “change in pATM (western blot)” value with pATM is recorded as “increase”. For the same substance, in assay [1] (DDR-deficient (BRCA2, pten, KU80, DNApk) cells, 24 hours treatment, colonies stained 8-14 days later), the “sensitivity of DDR-deficient cells to the compound” value is “more sensitive; also recorded: particularly susceptible”. In addition, in assay [1] (FIGS. 27-30), the “efficacy against cell lines in which DNA damage repair systems are deficient or down regulated” value is given as “excellent efficacy”. Also, the “sensitivity of hypoxic cells compared with normoxic cells” value in the assay with hypoxic A549 cells and in the assay on hypoxic MCF7 cells was “more sensitive” throughout. In addition, the “change in pATR (western blot)” value in the assay with pATR is given as “no increase”.
